What was measured:
[1] = system: Pseudomonas aeruginosa ATCC 27853 biofilm; assay: MBIC assay (biofilm inhibition, crystal violet); type: cell-based, P. aeruginosa; conditions: 48 h incubation, absorbance 540 nm
Protocol: The exact weighed amount was noted and the volume of solvent to reach a 80 mM dilution calculated. Half of the volume was added first, by adding Tween 80. In a second step, the other half of the volume DMSO was added and the closed tube inverted 5-10 times and then vortexed very thoroughly for at least 30 seconds. If after this procedure unsolved material was still visible, the tube was placed in a shaker at 37° C. at 150 rpm for at least 30 minutes. […] For the MBEC assay (method 1.3) the solution needs to be diluted to a final concentration of 2 mM in 0.9% saline solution and then further diluted to 1 mM, 0.5 mM, 0.25 mM and 0.125 mM in saline. Those dilutions were added as treatment to the 96 well plates with the grown biofilm (see method 3).
Frozen aliquots of Staphylococcus epidermis ATCC 35984 and Pseudomonas aeruginosa ATCC 27853 were used to inoculate a tryptic soy agar (TSA) plate and were incubated overnight at 37° C. After incubation 3-5 well-isolated colonies with the same morphology were selected from the TSA plate and resuspended in 2 mL 0.9% saline solution with 3-6 glass beads and vortexed. The optical density of the bacterial suspension was measured at 600 nm (OD600) with a spectrophotometer (Evolution™ 201/220 UV-Visible Spectrophotometer, Thermo Fisher Scientific) and diluted to an OD600 of 0.2. The MBIC assay was performed in a 96-microtiter plate. 50 μL of TSB was added into columns 2-11, and 100 μL to column 12 for sterility control. 100 μL of the 8 mM test compound solution (method 1) was added to column 1. A two-fold dilution series of the solution in TSB was achieved by resuspending 50 μL of the 8 mM solution from column 1 in column 2. This step was repeated until column 10. The respective concentration of Tween 80 and DMSO in column 1 is at 2.5%, which is two-fold diluted throughout the plate. 50 μL of the bacterial suspension was added to column 1-11. The microtiter plates were sealed with adhesive polyethylene film for sealing microplates (Diversified Biotech) and incubated for 48 h at 37° C. After incubation the supernatant is carefully removed and the well with the biofilm washed for one time with 100 μL 0.9% saline solution. 100 μL 0.1 M HCl was added and incubated for 1 h at room temperature to fix the biofilm. After incubation the HCl was removed and 100 μL crystal violet (0.1% v/v in water) was added and incubated for 30 min at room temperature. The unbound crystal violet was removed and the wells washed one time with 100 μL demineralized water. 100 μL 30% acetic acid was added and incubated for 1 h at 37° C. and 150 rpm. The solution was resuspended and transferred to a flat-bottom 96-well plate and the absorbance measured at 540 nm with the spectrophotometer. This assay was repeated two times in two independent experiments.

[2] = system: Pseudomonas aeruginosa ATCC 27853; assay: MIC assay (planktonic growth inhibition, OD600); type: cell-based, P. aeruginosa; conditions: 24 h at 37° C.
In short: (§1)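 Broth microdilution in MHB-II, two-fold series from 8 mM stock solution (Tween 80/DMSO co-diluted, 2.5% in top well). Inoculum from overnight TSA colonies adjusted to OD600 0.0008 (~10^6 CFU/mL); 24 h at 37° C., growth read as OD600; three independent experiments.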

[3] = system: Staphylococcus epidermis ATCC 35984; assay: MIC assay (planktonic growth inhibition, OD600); type: cell-based, S. epidermidis; conditions: 24 h at 37° C.
In short: as §1

[4] = system: udder cleft wound; assay: In vivo udder cleft dermatitis test: wound assessment after spray treatment; parameters: species or system cow; conditions: for inflammation of the udder cleft wound after treatment: immediately after the treatment, later infection reduced and wound healed; for Conclusion (effect on udder cleft wound): over 60 days, all cows of the group
[5] = minimal concentration reducing final OD600 by 50%
[6] = minimal concentration reducing final OD600 by 90%

Row | IC50 ([2]; Pseudomonas aeruginosa, ATCC27853, minimal concentration reducing final OD600 by 50%, read-out: P. aeruginosa MIC50) [µM] | IC90 ([2]; Pseudomonas aeruginosa, ATCC27853, minimal concentration reducing final OD600 by 90%, read-out: P. aeruginosa MIC90) [µM] | IC50 ([3]; minimal concentration reducing final OD600 by 50%, read-out: S. epidermidis MIC50) [µM] | IC90 ([3]; minimal concentration reducing final OD600 by 90%, read-out: S. epidermidis MIC90) [µM] | SMILES | P. aeruginosa MBIC90 [1] [mM] | P. aeruginosa MIC50 [2, 5] [µM] | P. aeruginosa MIC90 [2, 6] [µM] | S. epidermidis MIC50 [3, 5] [µM] | S. epidermidis MIC90 [3, 6] [µM] | inflammation of the udder cleft wound after treatment [4] | Conclusion (effect on udder cleft wound) [4]
1 | – | – | – | – | CSS(C)(=O)=O [Di-methyl thiosulfonate, methyl methane thiosulfonate] | 4 | 250 | 500 | 250 | 250 | fast inflammation reduction | Positive effect
2 | 1000 | 2000 | 250 | 500 | CCCS[S+]([O-])CCC (centres unmarked) [Di-n-propyl thiosulfinate, S-propyl propane-1-sulfinothioate] | 2 | – | – | – | – | fast inflammation reduction | Positive effect

— patent US20240374535A1, “COMPOSITIONS AND METHODS FOR TREATING BIOFILM DISORDERS AND INFECTIONS” (AHV International B.V., priority 2021, published 2024)
